For assay [1], the system named is TP53-WT hESCs. The experiment in a line: Cell viability assay (resazurin), TP53 wild-type human ES cells. The note with it: for sensitivity of TP53-WT hESCs (cell viability): all tested concentrations. In kind it is cell-based. On the procedure:
(§1) Human H9 embryonic stem cells (ESCs) (Lot No.: WIC-WA09-MB-001, WiCell, Wisconsin) and derivatives were maintained at 37° C., 5% CO2 in chemical-defined medium TeSR-E8 medium (Stemcell Tech.) with 100 U/ml penicillin & 100 μg/ml streptomycin (Gibco) on Matrigel-coated (# CB40230A, Corning) tissue culture vessels. Authentication of H9 ESCs were performed by WiCell. ESCs were passaged every 4 to 6 days to maintain sub-confluence using 0.5 mM EDTA as described previously. Human colon cancer RKO cells (kindly given by Dr. Bert Vogelstein) and its derivatives were maintained at 37° C., 5% CO2 in McCoy's 5A media (Fisher) supplemented with 10% FBS and 100 U/ml penicillin & 100 μg/ml streptomycin (Gibco). RKO cells were passaged every 3 to 4 days to maintain sub-confluence (authentication of RKO cell line was performed by JHU-GRCF Biorepository & Cell Center). Cells were screened for mycoplasma before experiments using a MycoAlert™ Mycoplasma Detection Kit (Lonza).
(§2) NCI Approved Oncology Drug Set IV containing 127 FDA-approved anticancer drugs was obtained from the NCI under a material transfer agreement. TP53 knockout or wild-type human ES cells were seeded in 96-well microplates in E8 medium, with 6,000 cells per well that would reach about 85% confluent at the end of the assay. Human ES cells were plated one day before treatment with a 7-point two-fold dilution series (starting with 10 μM) of each compound or solvent (dimethyl sulfoxide, DMSO or Dimethylformamide, DMF) control. After 72 hours incubation, cells were stained with 35 μM resazurin (Sigma), then quantification of fluorescent signal intensity was performed on Thermo Fluorskan™ Ascent plate reader at excitation and emission wavelengths of 544/590 nm. Data were normalized to the solvent control (DMSO or DMF) group. The area under a curve (AUC) was calculated using auc function (flux package) in R. The two-side t-test was performed with tlest function in R. The hierarchical clustering analysis of drugs AUC pattern in different samples was carried out using heatmap.2 function (gplots package) in R (All R code available). Viability response curves of Cisplatin and Paclitaxel on TP53-KO hESCs or RKO cells were generated using drc package (Analysis of Dose-Response Curves) in R.

Assay [2] deals with TP53-KO hESCs. Description: Cell viability assay (resazurin), TP53 knockout human ES cells. It counts as cell-based. The note with it: for sensitivity/resistance of TP53-KO hESCs (cell viability): 7-point two-fold dilution starting with 10 μM. On the procedure:
as §1
TP53 knockout hESCs and RKO cells were generated using CRISPR/Cas9 as described previously with minor modifications. Briefly, human codon-optimized Streptococcus pyogenes wild type Cas9 (Cas9-2A-GFP) was obtained from Addgene (#44719). Chimeric guide RNA expression cassettes with different small guide RNA, TP53_Up_sgRNA: 5′-[…]-3′ (SEQ ID NO: 1) and TP53_Down_sgRNA: 5′-[…]-3′ (SEQ ID NO: 2) were ordered as gBlock. These gBlocks were amplified by PCR using primers: gBlock_Amplifying_F: 5′-[…]-3′ (SEQ ID NO: 3) and gBlock_Amplifying_R: 5′-[…]-3′ (SEQ ID NO: 4). The PCR product was purified by Agencourt Ampure XP PCR Purification beads according to manufacturer's protocol (Beckman Coulter). 1.5 μg of Cas9 plasmid and 0.5 μg of each gRNAgBlock were co-transfected into hESCs via Lipofectamine™ 3000 (Thermo Fisher Scientific). […] For TP53-KO RKO cells, single clones were picked up and validated by PCR and Western blotting.
as §2

Assay [3] relates to TP53-KO RKO cells. Description: Cisplatin viability response on TP53 knockout RKO colon cancer cells. In kind it is cell-based, human. How it is done: as §1, with “RKO cells were passaged every 3 to 4 days to maintain sub-confluence (authentication of RKO cell line was performed by JHU-GRCF Biorepository & Cell Center). Cells were screened for mycoplasma before experiments using a MycoAlert™ Mycoplasma Detection Kit (Lonza).” left out
NCI Approved Oncology Drug Set IV containing 127 FDA-approved anticancer drugs was obtained from the NCI under a material transfer agreement. […] After 72 hours incubation, cells were stained with 35 μM resazurin (Sigma), then quantification of fluorescent signal intensity was performed on Thermo Fluorskan™ Ascent plate reader at excitation and emission wavelengths of 544/590 nm. […] The area under a curve (AUC) was calculated using auc function (flux package) in R. The two-side t-test was performed with tlest function in R. The hierarchical clustering analysis of drugs AUC pattern in different samples was carried out using heatmap.2 function (gplots package) in R (All R code available). […]

The subject of assay [4] is TP53-KO hESCs. The experiment in a line: Paclitaxel and Cisplatin drug synergy experiment on TP53-KO hESCs. It counts as cell-based, human. The note with it: low concentration Paclitaxel plus Cisplatin matrix, 72 hours, ZIP synergy model. How it is done: (§3) A Paclitaxel and Cisplatin drug matrix (12×8) in a 96-well plate was made for drug synergy experiment. Paclitaxel on row was an 11-point two-fold dilution series with starting concentration of 0.0016 μM, and Cisplatin on column was a 7-point two-fold dilution series with starting concentration of 2 μM, 5000 TP53-KO hESCs per well or 2000 TP53-KO RKO cells per well were plated on three 96-well plates one day before treatment with Paclitaxel and Cisplatin drug matrix. After 72 hours incubation for TP53-KO hESCs and 96 hours incubation for TP53-KO RKO cells, cells were stained with 35 μM resazurin (Sigma), then quantification of fluorescent signal intensity was performed on Thermo Fluorskan™ Ascent plate reader at excitation and emission wavelengths of 544/590 nm. The drug synergy scores were evaluated using ZIP model (Zero Interaction Potency model) in synergyfinder package.

Assay [5] relates to TP53-KO RKO cells. Description: Paclitaxel and Cisplatin drug synergy experiment on TP53-KO RKO cells. In kind it is cell-based, human. Particulars: Paclitaxel plus Cisplatin matrix, 96 hours, two TP53-KO clones, ZIP synergy model. On the procedure:
as §3

The test system of assay [6] is ZNF207/BuGZ knockout TP53-KO hESCs. The experiment in a line: Validation of ZNF207/BuGZ knockout in Cas9-expressing TP53-KO hESCs treated with Cisplatin (qPCR of knockout locus). It counts as cell-based, human. On the procedure:
Human TP53 knockout embryonic stem cells were infected at low MOI by viruses produced using pCLIP-Cas9-Nuclease-EFS-Blast (TransOMIC) and selected using blastcidin (10 μg/ml). The stable Cas9-expressing TP53-KO hESCs were infected with viruses with two sgRNAs against gene ZNF207/BuGZ (# TEDH-1090944, TransOMIC) or control gene OR1C1 (# TEDH-1055091, TransOMIC). These two sgRNAs could induce fragment deletion. We treated these cells with either 200 nM Cisplatin or vehicle DMF. We used realtime quantitative PCR to quantify the ZNF207 knockout locus, using gRNA flanking primers that only amplify when the intervening sequence has been deleted.
The relative percentage of ZNF207 or OR1C1 knockout cell number was defined as:
2^−ΔCT(Gene−LINE)/2^−ΔCT(Gene−LINE) at Day0.

Assay [7] has as its system TP53-WT hESCs. The experiment in a line: Cell viability assay (resazurin), TP53 wild-type human ES cells. It counts as cell-based. Particulars: 200 nM.
Where [8] appears, read: 72 hours, resazurin, low concentrations.

Molecules are shown by their SMILES.

From patent publication US20200299777A1, “Methods for Resensitizing p53-Null Cells to Cancer Chemotherapy” (UNIVERSITY OF SOUTH CAROLINA, priority 2019, published 2020) come the findings set out here.

Turning to `CCCCCOC(=O)Nc1nc(=O)n([C@@H]2O[C@H](C)[C@@H](O)[C@H]2O)cc1F` [Capecitabine], in the assay with TP53-WT hESCs [1] (72 hours, resazurin), the “sensitivity of TP53-WT hESCs (cell viability)” value is recorded as “resistant”. Moreover, the “sensitivity/resistance of TP53-KO hESCs (cell viability)” value (from here on “sensitivity/resistance of TP53-KO hESCs”) in the assay with TP53-KO hESCs [2] (72 hours, resazurin) is recorded as “resistant”.

`N.N.O=C([O-])C1(C(=O)[O-])CCC1.[Pt+2]` [Carboplatin]: in the assay on TP53-WT hESCs [1] (72 hours, resazurin), the “sensitivity of TP53-WT hESCs at low concentration (cell viability)” value was “very sensitive”. For the same compound, in the assay on TP53-KO hESCs [2] (72 hours, resazurin), the “sensitivity/resistance of TP53-KO hESCs” value is given as “resistant”.

On to `N.N.[Cl][Pt][Cl]` [Cisplatin], for which the “sensitivity of TP53-WT hESCs at low concentration (cell viability)” value in the assay on TP53-WT hESCs [1] (72 hours, resazurin) is “very sensitive”. Also, the “resistance of TP53-KO hESCs at the optimal concentration” value with TP53-KO hESCs [2] (200 nM) is given as “very resistant”. Also, in the assay on TP53-KO hESCs [2] (72 hours, resazurin), the “sensitivity/resistance of TP53-KO hESCs” value is recorded as “resistant”. In addition, the “resistance of TP53-KO RKO cells compared to TP53-WT RKO cells” value in the assay on TP53-KO RKO cells [3] is listed as “resistant”. For the same compound, the “inhibition of Cisplatin on TP53-KO hESCs in combination with Paclitaxel” value in the assay on TP53-KO hESCs [4] is “increased”. Also, in the assay with TP53-KO RKO cells [5], the “inhibition of Cisplatin on TP53-KO RKO cells in combination with Paclitaxel” value was “increased greatly”. Moreover, in assay [6] (200 nM vs vehicle DMF, two more TP53-KO hESC lines), the “sensitivity of ZNF207/BuGZ knockout TP53-KO hESCs” value is recorded as “more sensitive”. Moreover, the “depletion of ZNF207/BuGZ knockout cells versus DMF vehicle control” value in assay [6] (200 nM, ten days, qPCR at day 6 and 10) is on record as “depleted faster”. Also, in the assay on TP53-WT hESCs [7], the “sensitivity of TP53-WT hESCs at the optimal concentration” value is given as “very sensitive”.

Take `CC(=O)O[C@@]12CO[C@@H]1C[C@H](O)[C@@]1(C)C(=O)[C@H](O)C3=C(C)[C@@H](OC(=O)[C@H](O)[C@@H](NC(=O)OC(C)(C)C)c4ccccc4)C[C@@](O)([C@@H](OC(=O)c4ccccc4)[C@H]21)C3(C)C` [Docetaxel]: in the assay with TP53-WT hESCs [1] (72 hours, resazurin), the “sensitivity of TP53-WT hESCs (cell viability)” value was “sensitive”. Also, in the assay with TP53-KO hESCs [2] (72 hours, resazurin), the “sensitivity/resistance of TP53-KO hESCs” value is listed as “sensitive”.

With `O=c1[nH]cc(F)c(=O)[nH]1` [Fluorouracil], in the assay with TP53-WT hESCs [1] (72 hours, resazurin, high concentrations), the “sensitivity of TP53-WT hESCs at high concentrations” value is listed as “sensitive”. Moreover, the “resistance of TP53-WT hESCs at low concentrations” value in the assay on TP53-WT hESCs [1] (setting [8]) is recorded as “resistant”. Besides, the “resistance of TP53-KO hESCs at low concentrations” value in the assay on TP53-KO hESCs [2] (setting [8]) is “resistant”.

On to `CCc1c2c(nc3ccc(OC(=O)N4CCC(N5CCCCC5)CC4)cc13)-c1cc3c(c(=O)n1C2)COC(=O)[C@]3(O)CC` [Irinotecan], for which the “sensitivity of TP53-WT hESCs at low concentration (0.16 μM)” value in the assay on TP53-WT hESCs [1] (72 hours, resazurin) is “very sensitive”. Further, the “sensitivity/resistance of TP53-KO hESCs” value in the assay on TP53-KO hESCs [2] (72 hours, resazurin) is on record as “resistant”.

`COc1ccc(C2=N[C@@H](c3ccc(Cl)cc3)[C@@H](c3ccc(Cl)cc3)N2C(=O)N2CCNC(=O)C2)c(OC(C)C)c1` [Nutlin-3a]: in the assay on TP53-WT hESCs [1] (very low concentrations), the “growth inhibitory effect on TP53-WT hESCs” value is “severely growth arrested”.

For `O=C(c1cc(Cc2n[nH]c(=O)c3ccccc23)ccc1F)N1CCN(C(=O)C2CC2)CC1` [Olaparib], the “sensitivity of TP53-WT hESCs at low concentration (cell viability)” value in the assay with TP53-WT hESCs [1] (72 hours, resazurin) was “very sensitive”. Also, the “sensitivity/resistance of TP53-KO hESCs” value in the assay with TP53-KO hESCs [2] (72 hours, resazurin) was “resistant”.

For `O=C1[O][Pt]2([NH][C@@H]3CCCC[C@H]3[NH]2)[O]C1=O` [Oxaliplatin], the “sensitivity of TP53-WT hESCs at low concentration (0.16 μM)” value with TP53-WT hESCs [1] (72 hours, resazurin) was “very sensitive”. Besides, the “sensitivity/resistance of TP53-KO hESCs” value in the assay with TP53-KO hESCs [2] (72 hours, resazurin) is listed as “resistant”.

On to `CC(=O)O[C@H]1C(=O)[C@@]2(C)[C@H]([C@H](OC(=O)c3ccccc3)[C@]3(O)C[C@H](OC(=O)[C@H](O)[C@@H](NC(=O)c4ccccc4)c4ccccc4)C(C)=C1C3(C)C)[C@]1(OC(C)=O)CO[C@@H]1C[C@@H]2O` [Paclitaxel], for which the “sensitivity of TP53-WT hESCs (cell viability)” value in the assay on TP53-WT hESCs [1] (72 hours, resazurin) is “sensitive”. Also, the “sensitivity/resistance of TP53-KO hESCs” value with TP53-KO hESCs [2] (72 hours, resazurin) is “sensitive”.
